Values joined by “and” are separate entries in the source; they are usually repeats but may differ in a detail not shown here. Equal entries are not always repeated. No end group written: not given here.
Tested on: vesicular stomatitis Indiana virus (Indiana VSV)
Type: cell-based

| Substance | Virus infectivity (virus titer) |
| --- | --- |
| MKAIIVLLMVVTSNAKKRTLRKNDRKKR-CONH2 (MKAIIVLLMVVTSNAKKRTLRKNDRKKR-NH2) [Sample 3] | 9.23 log10 PFU/mL and 6.34 log10 PFU/mL |
| MKTIIALSYIFCLALGKKRTLRKNDRKKR-CONH2 (MKTIIALSYIFCLALGKKRTLRKNDRKKR-NH2) [Sample 2] | 9.07 log10 PFU/mL and 5.95 log10 PFU/mL |
| MLSYLIFALAVSPILGKKRTLRKNDRKKR-CONH2 (MLSYLIFALAVSPILGKKRTLRKNDRKKR-NH2) [Sample 1] | 9.11 log10 PFU/mL and 5.90 log10 PFU/mL |

From patent publication US10745448B2, “Antiviral peptide and use therefor” (priority 2017, dated 2020)
